Results as given in patent US5156956A, “Transgultaminase” (Ajinomoto Co., Inc., priority 1987, dated 1992).

Experiments:
BTG-1 [1] = biological target: T1, BTG-1 (Streptomyces mobaraensis, UniProt P81453); assay: Influence of metal ions on activity; format: biochemical, Streptoverticillium mobaraense IFO 13819; settings: metal ion 1 mM; None = 100; 30 min
T1 construct: BTGase is dissolved in the culture solution and can be harvested from the culture filtrate; endogenous in cells; host or cells: Streptoverticillium mobaraense IFO 13819 (natural producer; purified from culture filtrate)
T1 sequence (P81453 77-407): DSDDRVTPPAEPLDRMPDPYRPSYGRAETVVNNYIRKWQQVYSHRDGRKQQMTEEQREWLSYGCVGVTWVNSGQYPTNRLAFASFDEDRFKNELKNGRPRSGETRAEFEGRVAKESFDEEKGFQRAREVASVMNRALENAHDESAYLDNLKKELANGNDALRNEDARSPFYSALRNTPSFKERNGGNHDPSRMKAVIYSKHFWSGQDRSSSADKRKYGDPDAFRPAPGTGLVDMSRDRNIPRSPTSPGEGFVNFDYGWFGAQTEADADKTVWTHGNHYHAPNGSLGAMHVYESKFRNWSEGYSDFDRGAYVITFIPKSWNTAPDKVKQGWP
Procedure: (§1) Measurement of the activity of BTGase is carried out by performing a reaction using benzyloxycarbonyl-L-glutaminyl glycine and hydroxylamine as substrates in the absence of Ca^2+, forming an iron complex with the resulting hydroxamic acid in the presence of trichloroacetic acid, measuring absorption at 525 nm and determining the amount of hydroxamic acid by a calibration curve to calculate the activity. The BTGase activity is measured by the method described below, unless otherwise indicated.
(§2) To 0.05 ml of an enzyme solution is added 0.5 ml of Reagent A and they are mixed with each other. After reacting at 37° C. for 30 minutes, Reagent B is added thereto to discontinue the reaction and form an Fe complex. Thereafter, absorbance is measured at 525 nm. […] Separately, a calibration curve is prepared using L-glutamic acid γ-monohydroxamio acid instead of the enzyme solution, and the amount of hydroxamic acid produced is determined by the difference in absorbance described above. An enzyme activity which produces 1 μmol of hydroxamic acid per 1 minute is defined as 1 unit.

all BTGases [2] = assay: Influence of metal ions, statement on all BTGases; format: biochemical, Streptoverticillium; settings: metal ion 1 mM
Description: In all BTGases, the activity is inhibited by Cu^2+ and Zn^2+.

BTG-3 [3] = biological target: T2, BTG-3 (Streptomyces cinnamoneus, UniProt Q8GR90); assay: Influence of metal ions on activity; format: biochemical; settings: metal ion 1 mM; None = 100; 30 min
T2 construct: Ca2+-independent; made as pre-pro-protein
T2 sequence (Q8GR90 86-416): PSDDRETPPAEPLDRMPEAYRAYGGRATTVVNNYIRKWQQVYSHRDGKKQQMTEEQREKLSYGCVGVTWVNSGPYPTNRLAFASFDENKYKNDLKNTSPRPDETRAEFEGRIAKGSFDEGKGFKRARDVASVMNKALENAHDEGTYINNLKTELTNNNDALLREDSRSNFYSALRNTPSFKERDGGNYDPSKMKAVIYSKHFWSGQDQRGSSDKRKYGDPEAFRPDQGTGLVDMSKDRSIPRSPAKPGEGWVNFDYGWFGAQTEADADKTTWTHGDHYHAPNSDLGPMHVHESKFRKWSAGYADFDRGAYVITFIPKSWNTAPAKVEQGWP
Procedure: as §1, §2

BTG-2 [4] = biological target: T3, BTG-2 (Streptomyces griseocarneus, UniProt A0ABX7RSJ1); format: biochemical, Streptoverticillium griseocarneum IFO 12776; settings: metal ion 1 mM; None = 100; 30 min
T3 construct: Ca2+-independent; made as pre-pro-protein
Procedure: as §1, §2

all BTGases [5] = settings: inhibitor 1 mM, 25° C. for 30 minutes
BTG-2 [6] = biological target: T3, BTG-2; assay: biochemical; design: species or system Streptoverticillium griseocarneum IFO 12776
Procedure: as §1, §2

BTG-1 [7] = biological target: T1, BTG-1; assay: biochemical; design: species or system Streptoverticillium mobaraense IFO 13819; settings: inhibitor 1 mM, 25° C. for 30 minutes, None = 100
Procedure: as §1, §2

BTG-3 [8] = biological target: T2, BTG-3; assay: biochemical; settings: inhibitor 1 mM, 25° C. for 30 minutes, None = 100
Procedure: as §1, §2

Temperature stability = format: physicochemical; settings: pH 7 for 10 minutes
pH stability = format: physicochemical; settings: treatment at 37° C. for 10 minutes
[9] = Activity of the enzymes without added Ca2+; format: biochemical; settings: no CaCl2 added (Table 5)
Procedure: as §1

Optimum pH = format: biochemical; settings: 37° C. for 10 minutes

## [Cl][Cu][Cl] [CuCl2]
BTG-1 [1]
  BTG-1 (%) activity with metal ion: 79%
All BTGases [2]
  Effect of metal ion on activity of all BTGases (in words): inhibited
BTG-3 [3]
  BTG-3 (%) activity with metal ion: 86%
BTG-2 [4]
  BTG-2 (%) activity with metal ion: 82%

## CCN1C(=O)C=CC1=O [NEM, N-ethylmaleimide]
All BTGases [5]
  Effect of inhibitor on activity of all BTGases (in words): inhibited
BTG-2 [6]; read-out: BTG-2 (%) activity with inhibitor
  inhibition at 1000 µM: 5%
BTG-1 [7]; read-out: BTG-1 (%) activity with inhibitor
  inhibition at 1000 µM: 5%
BTG-3 [8]; read-out: BTG-3 (%) activity with inhibitor
  inhibition at 1000 µM: 3%

## O=C(O)c1cc[c]([Hg][Cl])cc1 [PCMB, p-chloromercury benzoic acid]
All BTGases [5]
  Effect of inhibitor on activity of all BTGases (in words): inhibited
BTG-2 [6]; inhibitor 1 mM, 25° C. for 30 minutes, None = 100
  BTG-2 (%) activity with inhibitor: 61%
BTG-1 [7]
  BTG-1 (%) activity with inhibitor: 54%
BTG-3 [8]
  BTG-3 (%) activity with inhibitor: 63%

## [Cl-].[Cl-].[Zn+2] [ZnCl2]
BTG-1 [1]
  BTG-1 (%) activity with metal ion: 15%
All BTGases [2]
  Effect of metal ion on activity of all BTGases (in words): inhibited
BTG-3 [3]
  BTG-3 (%) activity with metal ion: 24%
BTG-2 [4]
  BTG-2 (%) activity with metal ion: 24%

B1: BTG-1: transglutaminase of Streptoverticillium mobaraense IFO 13819 (protein, UniProt P81453 77-407, looked up)
Protein-glutamine …: DSDDRVTPPAEPLDRMPDPYRPSYGRAETVVNNYIRKWQQVYSHRDGRKQQMTEEQREWLSYGCVGVTWVNSGQYPTNRLAFASFDEDRFKNELKNGRPRSGETRAEFEGRVAKESFDEEKGFQRAREVASVMNRALENAHDESAYLDNLKKELANGNDALRNEDARSPFYSALRNTPSFKERNGGNHDPSRMKAVIYSKHFWSGQDRSSSADKRKYGDPDAFRPAPGTGLVDMSRDRNIPRSPTSPGEGFVNFDYGWFGAQTEADADKTVWTHGNHYHAPNGSLGAMHVYESKFRNWSEGYSDFDRGAYVITFIPKSWNTAPDKVKQGWP
Temperature stability; 40° C.
  Temperature stability (%), 40° C. residual rate: 88%
Temperature stability; 50° C.
  Temperature stability (%), 50° C. residual rate: 74%
pH stability
  pH Stability (stable pH range): 5-9
[9]
  Activity (%) of the enzyme, metal ion: None: 99%
Optimum pH
  Optimum pH: 6-7
